From PubChem BioAssay (NCI)
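Growth conditions: 96-well plates. Treatment: test compound, 48 hours, 5 concentrations. Analysis: linear interpolation between bracketing concentrations; unreached endpoints set to highest concentration. TGI marks complete inhibition of growth.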

Columns and labels:
Assay in all cases: growth of human tumour cells (NCI), 48 h
HT29 colon = tested on: HT29 colon
MOLT-4 leukemia = tested on: MOLT-4 leukemia
SK-OV-3 ovarian = tested on: SK-OV-3 ovarian
M14 melanoma = tested on: M14 melanoma
SF-295 CNS = tested on: SF-295 CNS
NCI/ADR-RES ovarian = tested on: NCI/ADR-RES ovarian
UACC-62 melanoma = tested on: UACC-62 melanoma
SNB-19 CNS = tested on: SNB-19 CNS
MDA-MB-435 = tested on: MDA-MB-435
OVCAR-5 ovarian = tested on: OVCAR-5 ovarian
MCF7 breast = tested on: MCF7 breast
HS 578T breast = tested on: HS 578T breast
NCI-H460 lung = tested on: NCI-H460 lung
U251 CNS = tested on: U251 CNS
HOP-92 NSCLC = tested on: HOP-92 NSCLC
DU-145 prostate = tested on: DU-145 prostate
NCI-H23 lung = tested on: NCI-H23 lung
PC-3 prostate = tested on: PC-3 prostate
MDA-N = tested on: MDA-N
EKVX NSCLC = tested on: EKVX NSCLC
SW-620 colon = tested on: SW-620 colon
SK-MEL-2 melanoma = tested on: SK-MEL-2 melanoma
SF-268 CNS = tested on: SF-268 CNS
UO-31 renal = tested on: UO-31 renal
NCI-H522 lung = tested on: NCI-H522 lung
SN12C renal = tested on: SN12C renal
CAKI-1 renal = tested on: CAKI-1 renal
SR leukemia = tested on: SR leukemia
OVCAR-8 ovarian = tested on: OVCAR-8 ovarian
HCC-2998 colon = tested on: HCC-2998 colon
SK-MEL-28 melanoma = tested on: SK-MEL-28 melanoma
T-47D breast = tested on: T-47D breast
COLO 205 colon = tested on: COLO 205 colon
UACC-257 melanoma = tested on: UACC-257 melanoma
KM12 colon = tested on: KM12 colon
HOP-62 NSCLC = tested on: HOP-62 NSCLC
A549 NSCLC = tested on: A549 NSCLC
ACHN renal = tested on: ACHN renal
A498 renal = tested on: A498 renal
K-562 leukemia = tested on: K-562 leukemia
HCT-15 colon = tested on: HCT-15 colon
MDA-MB-231 breast = tested on: MDA-MB-231 breast
LOX IMVI melanoma = tested on: LOX IMVI melanoma
OVCAR-4 ovarian = tested on: OVCAR-4 ovarian
HCT-116 colon = tested on: HCT-116 colon
MALME-3M melanoma = tested on: MALME-3M melanoma
BT-549 breast = tested on: BT-549 breast
RXF 393 renal = tested on: RXF 393 renal
786-0 renal = tested on: 786-0 renal
IGROV1 ovarian = tested on: IGROV1 ovarian
SNB-75 CNS = tested on: SNB-75 CNS
SK-MEL-5 melanoma = tested on: SK-MEL-5 melanoma
RPMI-8226 leukemia = tested on: RPMI-8226 leukemia
TK-10 renal = tested on: TK-10 renal
SF-539 CNS = tested on: SF-539 CNS
CCRF-CEM leukemia = tested on: CCRF-CEM leukemia
NCI-H226 lung = tested on: NCI-H226 lung
OVCAR-3 ovarian = tested on: OVCAR-3 ovarian

COCN1C(=O)[C@@H]2CCCN2C(=O)c2cc(Cl)ccc21
TGI (HT29 colon): > 100 µM | TGI (MOLT-4 leukemia): > 100 µM | TGI (SK-OV-3 ovarian): > 100 µM | TGI (M14 melanoma): > 100 µM | TGI (SF-295 CNS): > 100 µM | TGI (NCI/ADR-RES ovarian): > 100 µM | TGI (UACC-62 melanoma): > 100 µM | TGI (SNB-19 CNS): > 100 µM | TGI (MDA-MB-435): > 100 µM | TGI (OVCAR-5 ovarian): > 100 µM | TGI (MCF7 breast): > 100 µM | TGI (HS 578T breast): > 100 µM | TGI (NCI-H460 lung): > 100 µM | TGI (U251 CNS): > 100 µM | TGI (HOP-92 NSCLC): > 100 µM | TGI (DU-145 prostate): > 100 µM | TGI (NCI-H23 lung): > 100 µM | TGI (PC-3 prostate): > 100 µM | TGI (MDA-N): > 100 µM | TGI (EKVX NSCLC): > 100 µM | TGI (SW-620 colon): > 100 µM | TGI (SK-MEL-2 melanoma): > 100 µM | TGI (SF-268 CNS): > 100 µM | TGI (UO-31 renal): > 100 µM | TGI (NCI-H522 lung): > 100 µM | TGI (SN12C renal): > 100 µM | TGI (CAKI-1 renal): > 100 µM | TGI (SR leukemia): > 100 µM | TGI (OVCAR-8 ovarian): > 100 µM | TGI (HCC-2998 colon): > 100 µM | TGI (SK-MEL-28 melanoma): > 100 µM | TGI (T-47D breast): > 100 µM | TGI (COLO 205 colon): > 100 µM | TGI (UACC-257 melanoma): > 100 µM | TGI (KM12 colon): > 100 µM | TGI (HOP-62 NSCLC): > 100 µM | TGI (A549 NSCLC): > 100 µM | TGI (ACHN renal): > 100 µM | TGI (A498 renal): > 100 µM | TGI (K-562 leukemia): > 100 µM | TGI (HCT-15 colon): > 100 µM | TGI (MDA-MB-231 breast): > 100 µM | TGI (LOX IMVI melanoma): > 100 µM | TGI (OVCAR-4 ovarian): > 100 µM | TGI (HCT-116 colon): > 100 µM | TGI (MALME-3M melanoma): > 100 µM | TGI (BT-549 breast): > 100 µM | TGI (RXF 393 renal): > 100 µM | TGI (786-0 renal): > 100 µM | TGI (IGROV1 ovarian): > 100 µM | TGI (SNB-75 CNS): > 100 µM | TGI (SK-MEL-5 melanoma): > 100 µM | TGI (RPMI-8226 leukemia): > 100 µM | TGI (TK-10 renal): > 100 µM

O=C1c2ccccc2-n2c1nc1cc(Cl)ccc1c2=O
TGI (HT29 colon): > 100 µM | TGI (MOLT-4 leukemia): > 100 µM | TGI (SK-OV-3 ovarian): > 100 µM | TGI (M14 melanoma): > 100 µM | TGI (SF-295 CNS): > 100 µM | TGI (NCI/ADR-RES ovarian): > 100 µM | TGI (UACC-62 melanoma): 32.1 µM | TGI (SNB-19 CNS): > 100 µM | TGI (MDA-MB-435): 4.23 µM | TGI (OVCAR-5 ovarian): > 100 µM | TGI (MCF7 breast): > 100 µM | TGI (SF-539 CNS): > 100 µM | TGI (HS 578T breast): > 100 µM | TGI (NCI-H460 lung): > 100 µM | TGI (U251 CNS): > 100 µM | TGI (HOP-92 NSCLC): > 100 µM | TGI (DU-145 prostate): > 100 µM | TGI (NCI-H23 lung): > 100 µM | TGI (PC-3 prostate): > 100 µM | TGI (MDA-N): 29.1 µM | TGI (EKVX NSCLC): > 100 µM | TGI (SK-MEL-2 melanoma): > 100 µM | TGI (SF-268 CNS): > 100 µM | TGI (UO-31 renal): > 100 µM | TGI (NCI-H522 lung): > 100 µM | TGI (SN12C renal): > 100 µM | TGI (CAKI-1 renal): > 100 µM | TGI (SR leukemia): > 100 µM | TGI (OVCAR-8 ovarian): > 100 µM | TGI (HCC-2998 colon): > 100 µM | TGI (T-47D breast): 48.8 µM | TGI (COLO 205 colon): > 100 µM | TGI (UACC-257 melanoma): 29.1 µM | TGI (KM12 colon): > 100 µM | TGI (HOP-62 NSCLC): > 100 µM | TGI (A549 NSCLC): > 100 µM | TGI (ACHN renal): > 100 µM | TGI (CCRF-CEM leukemia): 9.2 µM | TGI (A498 renal): > 100 µM | TGI (K-562 leukemia): > 100 µM | TGI (HCT-15 colon): > 100 µM | TGI (MDA-MB-231 breast): > 100 µM | TGI (NCI-H226 lung): > 100 µM | TGI (OVCAR-3 ovarian): > 100 µM | TGI (LOX IMVI melanoma): 76.2 µM | TGI (OVCAR-4 ovarian): > 100 µM | TGI (HCT-116 colon): > 100 µM | TGI (MALME-3M melanoma): 21.9 µM | TGI (BT-549 breast): > 100 µM | TGI (RXF 393 renal): > 100 µM | TGI (786-0 renal): > 100 µM | TGI (IGROV1 ovarian): > 100 µM | TGI (SNB-75 CNS): > 100 µM | TGI (SK-MEL-5 melanoma): 76.4 µM | TGI (RPMI-8226 leukemia): > 100 µM | TGI (TK-10 renal): > 100 µM
